# Data published in US11713447B2, “Production of megakaryoctye compositions and therapies for treatment of thrombocytopenia” (Icahn School of Medicine at Mount Sinai, priority 2016, dated 2023).
# Legend:
# [1] = test system: Cord blood (CB) CD34+ cells; experiment: Ex vivo expansion of CB CD34+ cells in serum-free culture with valproic acid; format: cell-based
# Method: Cord blood (CB) CD34+ cells were obtained and separated into a testing group and a control group. The groups were subjected to the following cell culture protocol:
# The CB CD34+ cells were primed with a cytokine cocktail and plated in serum-free (SF) culture. The cytokine cocktail included stem cell factor (SCF) at an amount of 150 ng/mL, interleukin-3 (IL-3) at an amount of 50 ng/mL, Fms-like tyrosine kinase 3 (FLT-3) at an amount of 100 ng/mL, and thrombopoietin (TPO) at an amount of 100 ng/mL.
# 1 mM valproic acid (VPA) was added to the SF culture (testing group only). No VPA was added to the control group.
# The cells were allowed to expand in the SF culture and collected at Day 7. Total CD34+ cell expansion was around 200-fold.
# [2] = test system: Cord blood (CB) CD34+ cells; experiment: TPO-mediated MK differentiation after VPA expansion of CB CD34+ cells; format: cell-based
# Method: For this, 50,000 cryopreserved CB CD34+ cells were plated in serum-free (SF) media supplemented with stem cell factor (SCF), interleukin-3 (IL-3), Fms-like tyrosine kinase 3 (FLT-3), and TPO and allowed to expand with or without VPA (testing vs. control), as described in Example 1 above. After 7 days, instead of collecting, the cells were washed to remove VPA and cytokines, and re-plated in SF medium supplemented only with TPO. Approximately 50% more CD41+ MKs were detected in the VPA-expanded cultures than in cultures expanded with only cytokines (FIG. 3A). This corresponded to a final yield of ˜40 MKs generated from 1 CD34+ cell plated in the presence of VPA compared to […] CD41+ MKs generated by 1 CD34+ cell plated in the absence of VPA. q-PCR analyses confirmed upregulation of MK-specific genes (GATA1, PF4, and NFE2) in the cultures exposed to VPA before MK differentiation (FIG. 3B).
structure (smiles),measurement,setting,value
"CCCC(CCC)C(=O)O [VPA, valproic acid]",number of CD34+ cells in VPA-treated cultures relative to cells expanded in the absence of VPA,"[1]; 1 mM VPA added day 1, SF culture with SCF, IL-3, FLT-3, TPO",> 200 fold
same,Total CD34+ cell expansion,"[1]; 1 mM VPA, SF culture, collected at Day 7",around 200 fold
same,CD41+ MK cells in expanded HSCs,[1]; VPA-treated SF culture,8.9±2%
same,glycophorin (GPA)+ erythroid cells in expanded HSCs,[1]; VPA-treated SF culture,17±5.4%
same,primitive CD34+/CD90+ cells in expanded HSCs,[1]; VPA-treated SF culture,74.2±9.8%
same,more CD41+ MKs in VPA-expanded cultures than in cultures expanded with only cytokines,"[2]; 7 days expansion with VPA, then SF medium with TPO only",Approximately 50%
same,"q-PCR expression of MK-specific genes (GATA1, PF4, and NFE2)",[2]; cultures exposed to VPA before MK differentiation,upregulation
same,final yield of MKs generated from 1 CD34+ cell plated,[2]; plated in the presence of VPA,40 MKs generated from 1 CD34+ cell
